Reference: PubChem BioAssay (NCI)
Several values for one entry are separate records, joined by “and”; a condition that tells them apart may be missing. Equal entries are not always repeated.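 Compound exposure: 48 hours, 5 concentrations, 96-well plates. GI50: concentration for 50% inhibition of growth. TGI: total growth inhibition.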

Key:
Experiment in all cases: DTP human tumour cell line panel, 48 h
T-47D breast = tested on: T-47D breast
LOX IMVI melanoma = tested on: LOX IMVI melanoma
SNB-75 CNS = tested on: SNB-75 CNS
TK-10 renal = tested on: TK-10 renal
BT-549 breast = tested on: BT-549 breast
KM12 colon = tested on: KM12 colon
SF-539 CNS = tested on: SF-539 CNS
CCRF-CEM leukemia = tested on: CCRF-CEM leukemia
ACHN renal = tested on: ACHN renal
EKVX NSCLC = tested on: EKVX NSCLC

Row | Structure (SMILES) | GI50 (T-47D breast) [µM] | TGI (T-47D breast) | GI50 (LOX IMVI melanoma) [µM] | TGI (LOX IMVI melanoma) [µM] | GI50 (SNB-75 CNS) [µM] | TGI (SNB-75 CNS) [µM] | GI50 (TK-10 renal) [µM] | TGI (TK-10 renal) | GI50 (BT-549 breast) [µM] | TGI (BT-549 breast) [µM] | GI50 (KM12 colon) [µM] | TGI (KM12 colon) | GI50 (SF-539 CNS) [µM] | TGI (SF-539 CNS) [µM] | GI50 (CCRF-CEM leukemia) [µM] | TGI (CCRF-CEM leukemia) [µM] | GI50 (ACHN renal) [µM] | TGI (ACHN renal) [µM] | GI50 (EKVX NSCLC) [µM] | TGI (EKVX NSCLC) [µM]
1 | CCN(CC)CCCC(C)N=c1cc(Nc2cc(=NC(C)CCCN(CC)CC)c3cc(OC)ccc3o2)oc2ccc(OC)cc12 (stereo not drawn) | 2.92 | 13.2 µM | 1.02 | 2.29 | 0.829 | 2.93 | 1.3 | 3.22 µM | 3.16 | 9.49 | 1.62 | 5.63 µM | 0.803 | 1.5 | 2 | 16.3 |  |  |  | 
2 | C[n+]1ccc(-c2c3nc(c(-c4cc[n+](C)cc4)c4ccc([n-]4)c(-c4cc[n+](C)cc4)c4nc(c(-c5cc[n+](C)cc5)c5ccc2[n-]5)C=C4)C=C3)cc1.[I-].[Zn+2] |  |  | 82.9 | > 100 | 12.5 | 32.8 | 15.2 | 38 µM |  |  | 23.3 | 69.5 µM | 16.2 | 39.9 | 14.1 | 44.5 | 15.5 | 36.2 | 11.1 | 47.6
3 | CC1OC(OC2C(CO)OC(O[C@H]3CC[C@@]4(C)C(=CC[C@H]5[C@@H]6C[C@@H]7O[C@]8(CC[C@@H](C)CN8)[C@@H](C)[C@@H]7[C@@]6(C)CC[C@@H]54)C3)C(O)C2O)C(O)C(O)C1O (stereo partly drawn) |  |  |  | > 100 |  | > 100 |  | > 100 µM |  |  |  | > 100 µM |  | > 100 |  | > 100 |  | > 100 |  | > 100
4 | CC(C)(C)OC(=O)NC(CO)c1cccc(OCc2ccccc2)c1 (stereo not drawn) |  |  |  | > 100 |  | > 100 |  | > 100 µM |  |  |  | > 100 µM |  | > 100 |  | > 100 |  | > 100 |  | > 100
5 | CC[C@@H]1C[C@H]2CC3c4[nH]c5ccc(O)cc5c4CCN(C2)C31 |  |  |  | > 100 |  | > 100 |  | > 100 µM |  |  |  | > 100 µM |  | > 100 |  | > 100 |  | > 100 |  | > 100
6 | O=c1oc(=O)c2oc3ccccc3oc1=2 |  |  |  | > 100 |  | > 100 |  | > 100 µM |  |  |  | > 100 µM |  | > 100 |  | > 100 |  | > 100 |  | > 100
7 | O=C1CC(O)(c2ccccc2)C(c2ccccc2)=C1c1ccccc1 (stereo not drawn) |  |  |  | > 100 |  | 96.7 |  | > 100 µM |  |  |  | > 100 µM |  |  |  | > 100 |  | > 100 |  | > 100
8 | CN(C)CCOC(c1ccccc1)c1ccccc1 | 31.4 | 57.2 µM and > 100 µM |  | > 100 |  |  | 45.9 | 59.7 µM and > 100 µM | 33.7 | 48.4 | 32.8 | 68.1 µM and > 100 µM |  |  |  | > 100 |  | > 100 |  | > 100
9 | COC(=O)c1ccc(Cl)cc1NC(=O)C1CCCCC1 |  |  |  |  |  |  |  | > 100 µM |  |  |  | > 100 µM |  | > 100 |  |  |  | > 100 |  | > 100
10 | NC1=NCCN1CC(=O)O | > 10000 | > 10000 µM | > 10000 | > 10000 |  |  | > 10000 | > 10000 µM | > 10000 | > 10000 |  | > 10000 µM |  | > 1000 | > 10000 | > 10000 | > 10000 | > 10000 |  | > 10000
